For 7 molecules, GI50, CC50 and LD50 results are on record in ChEMBL document CHEMBL1121531, “Steroidal alpha-methylene delta-lactones as potential antitumor agents” (J Med Chem, 1980).

Each structure is given as a SMILES string. Values after ≈ are worked out from the molar mass of the structure shown.

Common to all, as to format: cell-based
A short description of series [1]: Dose that required to inhibit cell growth for cytotoxicity against human nasopharyngeal carcinoma (KB) cells in culture. The settings on record: read-out: LD50 (the source's name).
Series [2] in a line: (§1) Dose that required to inhibit cell growth for cytotoxicity against HEp-2 cells in culture. Particulars: human, HEp-2 cells; read-out: LD50 (the source's name).
The test system of another series is HEp-2. Described as §1. Particulars: human, hep-2.

With `C=C1CC2(C)C3CCC4(C)C(OC(C)=O)CCC4C3CC[C@H]2OC1=O` (some centres undefined), the GI50 in series [1] was 0.72 µg/mL (≈ 2.08 µM). With `C=C1CC2(CCC3(C)[C@@H](CC[C@H]4[C@@H]5CCC(=O)C5(C)CC[C@@H]43)C2)OC1=O` (some centres undefined), the CC50 in series [2] was 0.58 µg/mL (≈ 1.63 µM). The same measure, in the same setting: the result for `CC(=O)[C@H]1CC[C@H]2[C@@H]3CC[C@H]4CC(=O)CC[C@]4(C)[C@H]3CC[C@]12C` reads 0.84 µg/mL (≈ 2.65 µM). With `C=C1CC2(C)C3CCC4(C)C(O)CCC4C3CC[C@H]2OC1=O` (some centres undefined), the GI50 in series [1] came to 0.76 µg/mL (≈ 2.5 µM). Still for that read-out and setting: for `C=C1CC2C3CC[C@H]4CC(O)CCC4(C)C3CCC2(C)OC1=O` (some centres undefined) the value was 1 µg/mL (≈ 3.14 µM). With `C[C@]12CC[C@H]3[C@@H](CCC4=CC(=O)CC[C@@]43C)[C@@H]1CC[C@@H]2O` [TESTOSTERONE], the CC50 in series [2] was 0.44 µg/mL (≈ 1.53 µM). The LD50 with HEp-2 is 0.58 µg/mL. The GI50 in series [1] was 1.27 µg/mL (≈ 4.4 µM). For `C=C1CC2(C)C3CCC4(C)C(CCCCCCCC)CCC4C3CC[C@H]2OC1=O` (some centres undefined), the GI50 in series [1] amounted to 0.82 µg/mL (≈ 2.05 µM).
